# Laboratory results: US4302461A, “Antiinflammatory 5-substituted-2,3-diarylthiophenes” (E. I. Du Pont de Nemours and Company, priority 1980, dated 1981)
# Test system: Established Adjuvant-Induced Arthritis in Rats
# Experiment: Established Adjuvant-Induced Arthritis in Rats (uninjected left hind paw volume)
# Type: in vivo, Lewis (Wistar) male rats
# Conditions: Rattus norvegicus, 168 h; oral gavage once daily for 7 days (days 14-20); estimated by inspection of dose-response regression lines; read-out: ED50 % Decrease From Control Paw Volume
row,Structure (SMILES),ED50
1,"Fc1ccc(-c2cc(SC(F)(F)F)sc2-c2ccc(F)cc2)cc1 [Example 1, 2,3-bis(4-Fluorophenyl)-5-(trifluoromethylthio)thiophene]",3.5 mg/kg
2,"O=S(=O)(c1cc(-c2ccc(F)cc2)c(-c2ccc(F)cc2)s1)C(F)(F)F [Example 2, 2,3-bis(4-Fluorophenyl)-5-(trifluoromethylsulfonyl)thiophene]",10 mg/kg
3,Fc1ccc(-c2sc(SC(F)(F)F)cc2-c2ccc(Cl)cc2)cc1 [Example 7],4 mg/kg
4,Fc1ccc(-c2cc(SC(F)(F)F)sc2-c2ccc(Cl)cc2)cc1 [Example 9],10 mg/kg
5,COc1ccc(-c2cc(SC(F)(F)F)sc2-c2ccc(S(C)(=O)=O)cc2)cc1 [Example 21],9 mg/kg
6,CSc1ccc(-c2sc(SC(F)(F)F)cc2-c2ccc(F)cc2)cc1 [Example 22],0.4 mg/kg
7,CSc1ccc(-c2cc(SC(F)(F)F)sc2-c2ccc(F)cc2)cc1 [Example 24],0.15 mg/kg
8,"CCCCC1C(=O)N(c2ccccc2)N(c2ccccc2)C1=O [Phenylbutazone, reference compound]",10 mg/kg

# Same assay, conditions: Rattus norvegicus, 504 h; Daily Oral Dose 20 mg/kg, once daily for 7 days (days 14-20), paw volume on day 21; read-out: Percent Decrease from Control Paw Volume
row,Structure (SMILES),inhibition in vivo at 20 mg/kg
1,FC(F)(F)Sc1cc(-c2ccccc2)c(-c2ccccc2)s1 [Example 5],33%
2,COc1ccc(-c2cc(SC(F)(F)F)sc2-c2ccc(OC)cc2)cc1 [Example 6],32%

# Same assay, conditions: Rattus norvegicus, 504 h; Daily Oral Dose 27 mg/kg, once daily for 7 days (days 14-20), paw volume on day 21; read-out: Percent Decrease from Control Paw Volume
row,Structure (SMILES),inhibition in vivo at 27 mg/kg
1,"COc1ccc(-c2cc(SC)sc2-c2ccc(OC)cc2)cc1 [Example 3, 2,3-bis(4-Methoxyphenyl)-5-(methylthio)thiophene]",43%
2,"COc1ccc(-c2cc(SC(F)(F)C(F)F)sc2-c2ccc(OC)cc2)cc1 [Example 4, 2,3-bis(4-Methoxyphenyl)-5-(1,1,2,2-tetrafluoroethylthio)thiophene]",11%
3,CSc1cc(-c2ccc(F)cc2)c(-c2ccc(F)cc2)s1 [Example 8],25%
4,Fc1ccc(-c2cc(SC(F)(F)C(F)F)sc2-c2ccc(F)cc2)cc1 [Example 10],28%
5,COc1ccc(-c2cc(S(=O)(=O)C(F)(F)C(F)F)sc2-c2ccc(OC)cc2)cc1 [Example 11],23%
6,O=S(=O)(c1cc(-c2ccc(F)cc2)c(-c2ccc(F)cc2)s1)C(F)(F)C(F)F [Example 12],34%

# Same assay, conditions: Rattus norvegicus, 504 h; Daily Oral Dose 81 mg/kg, once daily for 7 days (days 14-20), paw volume on day 21; read-out: Percent Decrease from Control Paw Volume
row,Structure (SMILES),inhibition in vivo at 81 mg/kg
1,CCCCCCSc1cc(-c2ccc(OC)cc2)c(-c2ccc(OC)cc2)s1 [Example 20],39%

# Same assay, conditions: Rattus norvegicus, po, 168 h, read-out: ED50 % Decrease From Control Paw Volume
row,Structure (SMILES),ED50
1,"CC(=O)Oc1ccccc1C(=O)O [Aspirin, reference compound]",270 mg/kg
2,"COc1ccc2c(c1)c(CC(=O)O)c(C)n2C(=O)c1ccc(Cl)cc1 [Indomethacin, reference compound]",0.25 mg/kg

# Same assay, conditions: at the dose level tested
row,Structure (SMILES),antiinflammatory activity (statistical significance)
1,"COc1ccc(-c2cc(SC(F)(F)C(F)F)sc2-c2ccc(OC)cc2)cc1 [Example 4, 2,3-bis(4-Methoxyphenyl)-5-(1,1,2,2-tetrafluoroethylthio)thiophene]",did not exhibit statistically significant antiinflammatory activity
